How the values were obtained:
[1] = system: green peach aphid (Myzus persicae); experiment: Myzus test (MYZUPE spray treatment), Use Example 4; format: in vivo; details: 144 h, after 6 days; for pest or weed control at 100 g/ha: read-out: activity in %
Method: Solvents: 78 parts by weight of acetone • • 1.5 parts by weight of dimethylformamide
Emulsifier: 0.5 part by weight of alkylaryl polyglycol ether
An appropriate preparation of active compound is prepared by mixing 1 part by weight of active compound with the stated amounts of solvents and emulsifier and diluting the concentrate with emulsifier-containing water to the desired concentration.
Leaf discs of Chinese cabbage (Brassica pekinensis) infested by all stages of the green peach aphid (Myzus persicae) are sprayed with a preparation of active compound at the desired concentration.
After 6 days, the activity in % is ascertained. Here, 100% means that all of the aphids have been killed; 0% means that no aphids have been killed.

[2] = system: larvae of the mustard beetle (Phaedon cochleariae); experiment: Phaedon test (PHAECO spray treatment); format: in vivo; details: 168 h, after 7 days; for pest or weed control at 100 g/ha: read-out: activity in %
How it was run: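 Mortality of mustard beetle larvae, expressed as percent killed (100% all, 0% none), assessed 7 days after spraying. Spray liquor made from compound in acetone plus dimethylformamide with alkylaryl polyglycol ether, diluted in emulsifier-containing water to the desired concentration.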

[3] = system: caterpillars of the armyworm (Spodoptera frugiperda); experiment: Spodoptera frugiperda test (SPODFR spray treatment); format: in vivo; details: 168 h, 100 g/ha, after 7 days, read-out: activity in %
How it was run: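 Percent caterpillar mortality read 7 days after infestation (0% none killed, 100% all killed). Treatment was a spray of the acetone/DMF/emulsifier formulation, water-diluted to test concentration, onto Zea mays leaf discs, allowed to dry before larvae were added.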

[4] = log P determination by HPLC on reversed-phase columns (EEC Directive 79/831 Annex V.A8); format: physicochemical; details: pH 2.7
How it was run: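 Calibration used unbranched alkan-2-ones of 3 to 16 carbons with known log P, values interpolated linearly from retention times between neighbouring standards. Acidic-range LC-MS run at pH 2.7, eluents aqueous and acetonitrile formic acid 0.1%, linear gradient 10% to 95% acetonitrile.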

SMILES | pest or weed control at 100 g/ha [1] [%] | pest or weed control at 100 g/ha [2] [%] | pest or weed control at 100 g/ha [3] [%] | chromatographic logP [4] | pest or weed control at 20 g/ha [1] [%] | pest or weed control at 500 g/ha ([2]; 500 g/ha) [%]
CCNC(=O)c1cc(C#N)cc(C)c1NC(=O)c1cc(Cn2ncc(C(F)(F)F)n2)nn1-c1ncccc1Cl [Example 127] | 90 | 100 | 100 | 2.88 | – | –
Cc1cc(C#N)cc(C(=O)NCC2CC2)c1NC(=O)c1cc(Cn2ncc(C(F)(F)F)n2)nn1-c1ncccc1Cl [Example 130] | 100 | 100 | 100 | 3.17 | – | –
Cc1cc(C#N)cc(C(=O)NC2CCC2)c1NC(=O)c1cc(Cn2ncc(C(F)(F)F)n2)nn1-c1ncccc1Cl [Example 131] | 90 | 100 | 100 | 3.23 | – | –
Cc1cc(C#N)cc(C(=O)NCC#N)c1NC(=O)c1cc(Cn2ncc(C(F)(F)F)n2)nn1-c1ncccc1Cl [Example 132] | 100 | 100 | 100 | 2.76 | – | –
CSC[C@H](C)NC(=O)c1cc(C#N)cc(C)c1NC(=O)c1cc(Cn2ncc(C(F)(F)F)n2)nn1-c1ncccc1Cl [Example 133] | 90 | 100 | 100 | 3.33 | – | –
Cc1cc(Cl)cc(C(=O)NC2CC2)c1NC(=O)c1cc(Cn2ncc(C(F)(F)F)n2)nn1-c1ncccc1Cl [Example 137] | 100 | 100 | 100 | 3.18 | – | –
Cc1cc(Cl)cc(C(=O)NC(C)C)c1NC(=O)c1cc(Cn2ncc(C(F)(F)F)n2)nn1-c1ncccc1Cl [Example 139] | 90 | 100 | 100 | 3.48 | – | –
Cc1cc(Cl)cc(C(=O)NCC#N)c1NC(=O)c1cc(Cn2ncc(C(F)(F)F)n2)nn1-c1ncccc1Cl [Example 143] | 100 | 100 | 100 | 2.97 | – | –
CSC[C@H](C)NC(=O)c1cc(Cl)cc(C)c1NC(=O)c1cc(Cn2ncc(C(F)(F)F)n2)nn1-c1ncccc1Cl [Example 144] | 100 | 100 | 100 | 3.74 | – | –
CNC(=O)c1cc(Cl)cc(Cl)c1NC(=O)c1cc(Cn2ncc(C(F)(F)F)n2)nn1-c1ncccc1Cl [Example 146] | 100 | 100 | 100 | 2.98 | – | –
CC(C)NC(=O)c1cc(Cl)cc(Cl)c1NC(=O)c1cc(Cn2ncc(C(F)(F)F)n2)nn1-c1ncccc1Cl [Example 150] | 90 | 100 | 100 | 3.41 | – | –
Cc1cc(I)cc(C(N)=O)c1NC(=O)c1cc(Cn2ncc(C(F)(F)F)n2)nn1-c1ncccc1Cl [Example 156] | 100 | 100 | 100 | 2.89 | – | –
CNC(=O)c1cc(I)cc(C)c1NC(=O)c1cc(Cn2ncc(C(F)(F)F)n2)nn1-c1ncccc1Cl [Example 157] | 100 | 100 | 100 | 3.26 | – | –
Cc1cc(I)cc(C(=O)NCC#N)c1NC(=O)c1cc(Cn2ncc(C(F)(F)F)n2)nn1-c1ncccc1Cl [Example 165] | 100 | 100 | 100 | 3.11 | – | –
CSC[C@H](C)NC(=O)c1cc(I)cc(C)c1NC(=O)c1cc(Cn2ncc(C(F)(F)F)n2)nn1-c1ncccc1Cl [Example 166] | 100 | 100 | 100 | 3.98 | – | –
Cc1cc(F)cc(C(=O)NC(C)C)c1NC(=O)c1cc(Cn2ncc(C(F)(F)F)n2)nn1-c1ncccc1Cl [Example 170] | 100 | 100 | 100 | 3.08 | – | –
CNC(=O)c1cc(C#N)cc(C)c1NC(=O)c1cc(Cn2cc(C(F)(F)F)nn2)nn1-c1ncccc1Cl [Example 177] | 100 | 100 | 100 | 2.28 | – | –

SMILES | pest or weed control at 100 g/ha [1] [%] | pest or weed control at 100 g/ha [2] [%] | pest or weed control at 100 g/ha [3] [%] | chromatographic logP [4] | pest or weed control at 20 g/ha [1] [%] | pest or weed control at 500 g/ha ([2]; 500 g/ha) [%]
Cc1cc(C#N)cc(C(=O)NC(C)C2CC2)c1NC(=O)c1cc(Cn2cc(C(F)(F)F)nn2)nn1-c1ncccc1Cl (stereo not shown) [Example 178] | 100 | 100 | 100 | 2.95 | – | –
CCNC(=O)c1cc(C#N)cc(C)c1NC(=O)c1cc(Cn2cc(C(F)(F)F)nn2)nn1-c1ncccc1Cl [Example 180] | – | – | 100 | 2.49 | 100 | 100
Cc1cc(C#N)cc(C(=O)NC(C)(C)C)c1NC(=O)c1cc(Cn2cc(C(F)(F)F)nn2)nn1-c1ncccc1Cl [Example 182] | 100 | 100 | 100 | 2.97 | – | –
Cc1cc(C#N)cc(C(N)=O)c1NC(=O)c1cc(Cn2cc(C(F)(F)F)nn2)nn1-c1ncccc1Cl [Example 184] | – | 100 | 100 | 2.12 | 100 | –
Cc1cc(C#N)cc(C(=O)NCC2CC2)c1NC(=O)c1cc(Cn2cc(C(F)(F)F)nn2)nn1-c1ncccc1Cl [Example 185] | 90 | 100 | 100 | 2.81 | – | –
CNC(=O)c1cc(Cl)cc(C)c1NC(=O)c1cc(Cn2cc(C(F)(F)F)nn2)nn1-c1ncccc1Cl [Example 187] | 100 | 100 | 100 | 2.6 | – | –
CCNC(=O)c1cc(Cl)cc(C)c1NC(=O)c1cc(Cn2cc(C(F)(F)F)nn2)nn1-c1ncccc1Cl [Example 189] | 80 | 100 | 100 | 2.9 | – | –
Cc1cc(Cl)cc(C(N)=O)c1NC(=O)c1cc(Cn2cc(C(F)(F)F)nn2)nn1-c1ncccc1Cl [Example 192] | 100 | 100 | 100 | 2.44 | – | –
Cc1cc(Cl)cc(C(=O)NC(C)C2CC2)c1NC(=O)c1cc(Cn2cc(C(F)(F)F)nn2)nn1-c1ncccc1Cl (stereo not shown) [Example 193] | 100 | 100 | 100 | 3.34 | – | –
CSC[C@H](C)NC(=O)c1cc(Cl)cc(C)c1NC(=O)c1cc(Cn2cc(C(F)(F)F)nn2)nn1-c1ncccc1Cl [Example 194] | 100 | 100 | 100 | 3.35 | – | –
Cc1cc(Cl)cc(C(=O)NCC#N)c1NC(=O)c1cc(Cn2cc(C(F)(F)F)nn2)nn1-c1ncccc1Cl [Example 196] | 100 | 100 | 100 | 2.61 | – | –
CNC(=O)c1cc(Cl)cc(Cl)c1NC(=O)c1cc(Cn2cc(C(F)(F)F)nn2)nn1-c1ncccc1Cl [Example 197] | 90 | 100 | 100 | 2.59 | – | –
CC(C)(C)NC(=O)c1cc(Cl)cc(Cl)c1NC(=O)c1cc(Cn2cc(C(F)(F)F)nn2)nn1-c1ncccc1Cl [Example 201] | 100 | 100 | 100 | 3.42 | – | –
NC(=O)c1cc(Cl)cc(Cl)c1NC(=O)c1cc(Cn2cc(C(F)(F)F)nn2)nn1-c1ncccc1Cl [Example 203] | 100 | 100 | 100 | 2.43 | – | –
CSC[C@H](C)NC(=O)c1cc(I)cc(C)c1NC(=O)c1cc(Cn2cc(C(F)(F)F)nn2)nn1-c1ncccc1Cl [Example 212] | 100 | 100 | 100 | 3.59 | – | –
Cc1cc(I)cc(C(N)=O)c1NC(=O)c1cc(Cn2cc(C(F)(F)F)nn2)nn1-c1ncccc1Cl [Example 213] | 100 | 100 | 100 | 2.64 | – | –
Cc1cc(I)cc(C(=O)NCC#N)c1NC(=O)c1cc(Cn2cc(C(F)(F)F)nn2)nn1-c1ncccc1Cl [Example 215] | 90 | 100 | 100 | 2.82 | – | –

— patent US8536202B2, “Triazole-substituted anthranilamides as pesticides” (Bayer Cropscience AG, priority 2010, dated 2013)
